Measurements: patent US20160120848A1, “SPECIFIC CANCER TREATMENT REGIMES WITH GANETESPIB” (SYNTA PHARMACEUTICALS CORP., priority 2013, published 2016)

Experiments:
[1] = system: advanced solid tumor malignancies; experiment: Phase I study of ganetespib monotherapy in advanced solid tumor malignancies; format: in vivo, patients; details: ganetespib monotherapy 75 or 150 mg/m^2, Days 1 and 15 of 3-week cycle
Protocol: A total of 3 (three) cohorts are treated in this study. All patients are hospitalized for the duration of Cycle 1, Days 1 through 21.
(§1) In the first cohort (Cohort 1), patients with advanced solid tumor malignancies are treated with 75 mg/m^2 of ganetespib monotherapy. In the second cohort (Cohort 2), patients with advanced solid tumor malignancies are treated with 150 mg/m^2 of ganetespib monotherapy. In the third cohort (Cohort 3), patients with advanced NSCLC are treated with ganetespib (150 mg/m^2) in combination with docetaxel (75 mg/m^2). In the case of intolerability of the third cohort's combination regimen, in a fourth cohort (Cohort 4), patients with advanced NSCLC are treated with ganetespib (150 mg/m^2) in combination with docetaxel (60 mg/m^2).
Each cohort enrolls 3 to 6 patients, depending on toxicity and the inclusion of Cohort 4. A total of 9 patients are enrolled at the recommended combination dose level to better characterize the safety and PK profiles. Each cohort consists of a maximum of 6 evaluable patients, except for the recommended combination dose level, which enrolls a total of 9 patients. Patients who discontinue from the study for reasons other than DLT (dose-limiting toxicity) before completing Cycle 1 are replaced. For all cohorts, patients are hospitalized for the duration of Cycle 1, Days 1 through 21. […]

[2] = system: advanced non-small-cell lung cancer (NSCLC) of non-squamous histology; experiment: Phase I study of ganetespib in combination with docetaxel in advanced NSCLC; format: in vivo, patients; details: ganetespib 150 mg/m^2 in combination with docetaxel (75 or 60 mg/m^2)
Protocol: as §1
Patients with advanced NSCLC, excluding patients with squamous cell histology, are administered ganetespib and docetaxel in Cohort 3.
The purpose of this cohort is to explore the PK and tolerability of ganetespib in combination with docetaxel. Patients enrolled in this cohort receive ganetespib 150 mg/m^2 in combination with docetaxel 75 mg/m^2.
On Day 1 of each 3-week treatment cycle, ganetespib and docetaxel are administered as separate 1-hour intravenous infusions. Administration of ganetespib precedes the administration of docetaxel. There is a 1-hour “rest” period following the end of the ganetespib infusion and prior to docetaxel infusion.
On Day 15, patients receive 150 mg/m^2 single-agent ganetespib administered via a 1-hour intravenous infusion. […]

CC(C)c1cc(-c2n[nH]c(=O)n2-c2ccc3c(ccn3C)c2)c(O)cc1O [ganetespib] was tested, and the efficacy [1] was “efficacious”, the safety profile [1] was “good safety profile” and the efficacy [2] was “efficacious”.
